Results: ChEMBL document CHEMBL3232804, “Synthesis and evaluation of new diaryl ether and quinoline hybrids as potential antiplasmodial and antimicrobial agents” (Bioorg Med Chem Lett, 2014)
≈ marks a conversion by molar mass, not a printed value.

Legend:
Staphylococcus aureus = assay: Antimicrobial activity against Staphylococcus aureus ATCC 25923 after 24 hrs by standard broth microdilution method; assay type: functional
Klebsiella pneumoniae = assay: Antimicrobial activity against Klebsiella pneumoniae ATCC 27736 after 24 hrs by standard broth microdilution method; assay type: functional
Pseudomonas aeruginosa = assay: Antimicrobial activity against Pseudomonas aeruginosa ATCC BAA-427 after 24 hrs by standard broth microdilution method; assay type: functional
Escherichia coli = assay: Antimicrobial activity against Escherichia coli ATCC 9637 after 24 hrs by standard broth microdilution method; assay type: functional
Aspergillus fumigatus = assay: Antifungal activity against Aspergillus fumigatus clinical isolate after 72 to 96 hrs by standard broth microdilution method; assay type: functional
Plasmodium falciparum [1] = assay: Antiplasmodial activity against chloroquine-sensitive Plasmodium falciparum 3D7 infected after 72 hrs by Malaria SYBR Green I-staining based fluorescence assay; assay type: functional, organism-based; settings: 3D7, 72 h
Cryptococcus neoformans = assay: Antifungal activity against Cryptococcus neoformans clinical isolate after 24 to 48 hrs by standard broth microdilution method; assay type: functional
Sporothrix schenckii = assay: Antifungal activity against Sporothrix schenckii clinical isolate after 72 to 96 hrs by standard broth microdilution method; assay type: functional
Candida parapsilosis = assay: Antifungal activity against Candida parapsilosis ATCC […] after 72 to 96 hrs by standard broth microdilution method; assay type: functional; settings: Lodderomyces parapsilosis
Candida albicans = assay: Antifungal activity against Candida albicans clinical isolate after 24 to 48 hrs by standard broth microdilution method; assay type: functional
Plasmodium falciparum [2] = assay: Antiplasmodial activity against chloroquine-resistant Plasmodium falciparum K1 infected after 72 hrs by Malaria SYBR Green I-staining based fluorescence assay; assay type: functional, organism-based; settings: K1, 72 h
[3] = test system: Trichophyton mentagrophytes; assay: Antifungal activity against Trichophyton mentagrophytes clinical isolate after 72 to 96 hrs by standard broth microdilution method; assay type: functional

COc1cccc(OC)c1C(=O)N[C@@H]1C(=O)N2[C@@H]1SC(C)(C)[C@@H]2C(=O)O [METHICILLIN]
MIC (Staphylococcus aureus; ATCC 25923, 24 h): 1.56 µg/mL (≈ 4.1 µM) | MIC (Klebsiella pneumoniae; ATCC 27736, 24 h): > 50 µg/mL | MIC (Pseudomonas aeruginosa; ATCC BAA-427, 24 h): > 50 µg/mL | MIC (Escherichia coli; ATCC 9637, 24 h): > 50 µg/mL

COC(=O)/C(C)=C/c1ccc(Oc2ccccc2N/C(=N/c2cccc(Cl)c2)NCc2ccccc2)cc1
MIC (Aspergillus fumigatus): > 50 µg/mL | MIC (Staphylococcus aureus; ATCC 25923, 24 h): > 50 µg/mL | IC50 (Plasmodium falciparum [1]): > 800 nM | MIC (Cryptococcus neoformans): > 50 µg/mL | MIC (Sporothrix schenckii): > 50 µg/mL | MIC (Klebsiella pneumoniae; ATCC 27736, 24 h): 12.5 µg/mL (≈ 23.8 µM) | MIC (Candida parapsilosis): > 50 µg/mL | MIC (Candida albicans): > 50 µg/mL | IC50 (Plasmodium falciparum [2]): > 1200 nM | MIC (Pseudomonas aeruginosa; ATCC BAA-427, 24 h): > 50 µg/mL | MIC (Escherichia coli; ATCC 9637, 24 h): > 50 µg/mL | MIC [3]: > 50 µg/mL

GENTAMICIN SULFATE
MIC (Staphylococcus aureus): 1.56 µg/mL | MIC (Klebsiella pneumoniae): 1.56 µg/mL | MIC (Pseudomonas aeruginosa): 0.39 µg/mL | MIC (Escherichia coli): 1.56 µg/mL

Clc1ccc(/N=C(\NCCCNc2ccnc3cc(Cl)ccc23)Nc2ccc(Oc3cc(Cl)ccc3Cl)cc2)cc1
MIC (Aspergillus fumigatus): > 50 µg/mL | MIC (Staphylococcus aureus; ATCC 25923, 24 h): > 50 µg/mL | IC50 (Plasmodium falciparum [1]): > 800 nM | MIC (Cryptococcus neoformans): > 50 µg/mL | MIC (Sporothrix schenckii): 50 µg/mL (≈ 80 µM) | MIC (Klebsiella pneumoniae; ATCC 27736, 24 h): > 50 µg/mL | MIC (Candida parapsilosis): > 50 µg/mL | MIC (Candida albicans): > 50 µg/mL | IC50 (Plasmodium falciparum [2]): > 800 nM | MIC (Pseudomonas aeruginosa; ATCC BAA-427, 24 h): > 50 µg/mL | MIC (Escherichia coli; ATCC 9637, 24 h): > 50 µg/mL | MIC [3]: 50 µg/mL (≈ 80 µM)

CCn1cc(C(=O)O)c(=O)c2cc(F)c(N3CCNCC3)cc21 [NORFLOXACIN]
MIC (Staphylococcus aureus; ATCC 25923, 24 h): 0.78 µg/mL (≈ 2.44 µM) | MIC (Klebsiella pneumoniae; ATCC 27736, 24 h): 0.36 µg/mL (≈ 1.13 µM) | MIC (Pseudomonas aeruginosa; ATCC BAA-427, 24 h): 0.3 µg/mL (≈ 0.939 µM) | MIC (Escherichia coli; ATCC 9637, 24 h): 0.36 µg/mL (≈ 1.13 µM)

COc1ccc(Oc2ccc(N/C(=N/c3ccccc3)NCCNc3ccnc4cc(Cl)ccc34)cc2)cc1
MIC (Aspergillus fumigatus): 25 µg/mL (≈ 46.5 µM) | MIC (Staphylococcus aureus; ATCC 25923, 24 h): 6.25 µg/mL (≈ 11.6 µM) | IC50 (Plasmodium falciparum [1]): > 900 nM | MIC (Cryptococcus neoformans): 50 µg/mL (≈ 92.9 µM) | MIC (Sporothrix schenckii): 12.5 µg/mL (≈ 23.2 µM) | MIC (Klebsiella pneumoniae; ATCC 27736, 24 h): 12.5 µg/mL (≈ 23.2 µM) | MIC (Candida parapsilosis): 25 µg/mL (≈ 46.5 µM) | MIC (Candida albicans): 25 µg/mL (≈ 46.5 µM) | IC50 (Plasmodium falciparum [2]): 635 nM | MIC (Pseudomonas aeruginosa; ATCC BAA-427, 24 h): > 50 µg/mL | MIC (Escherichia coli; ATCC 9637, 24 h): 6.25 µg/mL (≈ 11.6 µM) | MIC [3]: 12.5 µg/mL (≈ 23.2 µM)

COC(=O)/C(C)=C/c1ccc(Oc2ccccc2N/C(=N/c2ccccc2)NC2CC2)cc1
MIC (Aspergillus fumigatus): > 50 µg/mL | MIC (Staphylococcus aureus; ATCC 25923, 24 h): > 50 µg/mL | IC50 (Plasmodium falciparum [1]): > 1200 nM | MIC (Cryptococcus neoformans): > 50 µg/mL | MIC (Sporothrix schenckii): > 50 µg/mL | MIC (Klebsiella pneumoniae; ATCC 27736, 24 h): 12.5 µg/mL (≈ 28.3 µM) | MIC (Candida parapsilosis): > 50 µg/mL | MIC (Candida albicans): > 50 µg/mL | IC50 (Plasmodium falciparum [2]): > 1200 nM | MIC (Pseudomonas aeruginosa; ATCC BAA-427, 24 h): > 50 µg/mL | MIC (Escherichia coli; ATCC 9637, 24 h): > 50 µg/mL | MIC [3]: > 50 µg/mL

COc1ccc(Oc2ccccc2N/C(=N/c2ccccc2)NCCCCNc2ccnc3cc(Cl)ccc23)cc1
MIC (Aspergillus fumigatus): 50 µg/mL (≈ 88.3 µM) | MIC (Staphylococcus aureus; ATCC 25923, 24 h): > 50 µg/mL | IC50 (Plasmodium falciparum [1]): 109 nM | MIC (Cryptococcus neoformans): > 50 µg/mL | MIC (Sporothrix schenckii): 50 µg/mL (≈ 88.3 µM) | MIC (Klebsiella pneumoniae; ATCC 27736, 24 h): > 50 µg/mL | MIC (Candida parapsilosis): > 50 µg/mL | MIC (Candida albicans): > 50 µg/mL | IC50 (Plasmodium falciparum [2]): > 1000 nM | MIC (Pseudomonas aeruginosa; ATCC BAA-427, 24 h): > 50 µg/mL | MIC (Escherichia coli; ATCC 9637, 24 h): > 50 µg/mL | MIC [3]: > 50 µg/mL

COc1ccc(Oc2ccccc2N/C(=N/c2ccccc2)NCCNc2ccnc3cc(Cl)ccc23)cc1
MIC (Aspergillus fumigatus): > 50 µg/mL | MIC (Staphylococcus aureus; ATCC 25923, 24 h): 50 µg/mL (≈ 92.9 µM) | IC50 (Plasmodium falciparum [1]): 42 nM | MIC (Cryptococcus neoformans): > 50 µg/mL | MIC (Sporothrix schenckii): 50 µg/mL (≈ 92.9 µM) | MIC (Klebsiella pneumoniae; ATCC 27736, 24 h): > 50 µg/mL | MIC (Candida parapsilosis): > 50 µg/mL | MIC (Candida albicans): > 50 µg/mL | IC50 (Plasmodium falciparum [2]): 193 nM | MIC (Pseudomonas aeruginosa; ATCC BAA-427, 24 h): > 50 µg/mL | MIC (Escherichia coli; ATCC 9637, 24 h): > 50 µg/mL | MIC [3]: > 50 µg/mL

COC(=O)/C(C)=C/c1ccc(Oc2ccccc2N/C(=N/c2cccc(Cl)c2)NC2CC2)cc1
MIC (Aspergillus fumigatus): > 50 µg/mL | MIC (Staphylococcus aureus; ATCC 25923, 24 h): 25 µg/mL (≈ 52.5 µM) | IC50 (Plasmodium falciparum [1]): > 1200 nM | MIC (Cryptococcus neoformans): > 50 µg/mL | MIC (Sporothrix schenckii): > 50 µg/mL | MIC (Klebsiella pneumoniae; ATCC 27736, 24 h): 12.5 µg/mL (≈ 26.3 µM) | MIC (Candida parapsilosis): > 50 µg/mL | MIC (Candida albicans): 50 µg/mL (≈ 105 µM) | IC50 (Plasmodium falciparum [2]): > 1200 nM | MIC (Pseudomonas aeruginosa; ATCC BAA-427, 24 h): > 50 µg/mL | MIC (Escherichia coli; ATCC 9637, 24 h): > 50 µg/mL | MIC [3]: 25 µg/mL (≈ 52.5 µM)

C[C@@H]1[C@H](O)[C@@H](C)/C=C/C=C/C=C/C=C/C=C/C=C/C=C/[C@H](O[C@@H]2O[C@H](C)[C@@H](O)[C@H](N)[C@@H]2O)C[C@@H]2O[C@](O)(C[C@@H](O)C[C@@H](O)[C@H](O)CC[C@@H](O)C[C@@H](O)CC(=O)O[C@H]1C)C[C@H](O)[C@H]2C(=O)O [AMPHOTERICIN B]
MIC (Aspergillus fumigatus): 0.5 µg/mL (≈ 0.541 µM) | MIC (Cryptococcus neoformans): 0.06 µg/mL (≈ 0.0649 µM) | MIC (Sporothrix schenckii): 0.12 µg/mL (≈ 0.13 µM) | MIC (Candida parapsilosis): 0.12 µg/mL (≈ 0.13 µM) | MIC (Candida albicans): 0.12 µg/mL (≈ 0.13 µM) | MIC [3]: 0.12 µg/mL (≈ 0.13 µM)

OC(Cn1cncn1)(Cn1cncn1)c1ccc(F)cc1F [FLUCONAZOLE]
MIC (Aspergillus fumigatus): 2 µg/mL (≈ 6.53 µM) | MIC (Cryptococcus neoformans): 1 µg/mL (≈ 3.27 µM) | MIC (Sporothrix schenckii): 2 µg/mL (≈ 6.53 µM) | MIC (Candida parapsilosis): 1 µg/mL (≈ 3.27 µM) | MIC (Candida albicans): 0.5 µg/mL (≈ 1.63 µM) | MIC [3]: 1 µg/mL (≈ 3.27 µM)

COc1ccc(Oc2ccccc2N/C(=N/c2ccccc2)NCCCNc2ccnc3cc(Cl)ccc23)cc1
MIC (Aspergillus fumigatus): 50 µg/mL (≈ 90.6 µM) | MIC (Staphylococcus aureus; ATCC 25923, 24 h): 50 µg/mL (≈ 90.6 µM) | IC50 (Plasmodium falciparum [1]): 120 nM | MIC (Cryptococcus neoformans): > 50 µg/mL | MIC (Sporothrix schenckii): 50 µg/mL (≈ 90.6 µM) | MIC (Klebsiella pneumoniae; ATCC 27736, 24 h): > 50 µg/mL | MIC (Candida parapsilosis): 50 µg/mL (≈ 90.6 µM) | MIC (Candida albicans): 50 µg/mL (≈ 90.6 µM) | MIC (Pseudomonas aeruginosa; ATCC BAA-427, 24 h): > 50 µg/mL | MIC (Escherichia coli; ATCC 9637, 24 h): 50 µg/mL (≈ 90.6 µM) | MIC [3]: > 50 µg/mL

COC(=O)/C(C)=C/c1ccc(Oc2ccccc2N/C(=N/c2ccccc2)NCc2ccccc2)cc1
MIC (Aspergillus fumigatus): > 50 µg/mL | MIC (Staphylococcus aureus; ATCC 25923, 24 h): 25 µg/mL (≈ 50.9 µM) | IC50 (Plasmodium falciparum [1]): > 1200 nM | MIC (Cryptococcus neoformans): > 50 µg/mL | MIC (Sporothrix schenckii): > 50 µg/mL | MIC (Klebsiella pneumoniae; ATCC 27736, 24 h): 12.5 µg/mL (≈ 25.4 µM) | MIC (Candida parapsilosis): > 50 µg/mL | MIC (Candida albicans): > 50 µg/mL | IC50 (Plasmodium falciparum [2]): > 1200 nM | MIC (Pseudomonas aeruginosa; ATCC BAA-427, 24 h): > 50 µg/mL | MIC (Escherichia coli; ATCC 9637, 24 h): > 50 µg/mL | MIC [3]: > 50 µg/mL

CN[C@H](CC(C)C)C(=O)N[C@H]1C(=O)N[C@@H](CC(N)=O)C(=O)N[C@H]2C(=O)N[C@H]3C(=O)N[C@H](C(=O)N[C@H](C(=O)O)c4cc(O)cc(O)c4-c4cc3ccc4O)[C@H](O)c3ccc(c(Cl)c3)Oc3cc2cc(c3O[C@@H]2O[C@H](CO)[C@@H](O)[C@H](O)[C@H]2O[C@H]2C[C@](C)(N)[C@H](O)[C@H](C)O2)Oc2ccc(cc2Cl)[C@H]1O [VANCOMYCIN]
MIC (Staphylococcus aureus; ATCC 25923, 24 h): 0.78 µg/mL (≈ 0.538 µM) | MIC (Klebsiella pneumoniae; ATCC 27736, 24 h): > 50 µg/mL | MIC (Pseudomonas aeruginosa; ATCC BAA-427, 24 h): > 50 µg/mL | MIC (Escherichia coli; ATCC 9637, 24 h): > 50 µg/mL
